Laboratory results: patent publication US10392383B2, “3-(1H-benzo[d]imidazol-2-yl)-1H-pyrazolo[4,3-b]pyridines and therapeutic uses thereof” (Samumed, LLC, priority 2015, dated 2019)

Legend:
[1] = tested on: Wnt activity (Sp5-Luc reporter, Wnt-responsive promoter) in SW480 colon carcinoma cells; assay: Wnt activity screening assay: Sp5-Luc reporter gene assay in SW480 cells; assay type: cell-based; details: Homo sapiens; for EC50: overnight incubation, 10-point curve starting from 10 μM; for inhibition at 10 µM: read-out: percent inhibition at 10 μM (given for EC50 of >10 μM)
Source text: The screening assay for Wnt activity is described as follows. Reporter cell lines can be generated by stably transducing cancer cell lines (e.g., colon cancer) or primary cells (e.g., IEC-6 intestinal cells) with a lentiviral construct that includes a Wnt-responsive promoter driving expression of the firefly luciferase gene.
SW480 colon carcinoma cells were transduced with a lentiviral vector expressing luciferase with a human Sp5 promoter consisting of a sequence of eight TCF/LEF binding sites. SW480 cells stably expressing the Sp5-Luc reporter gene and a hygromycin resistance gene were selected by treatment with 150 μg/mL of hygromycin for 7 days. These stably transduced SW480 cells were expanded in cell culture and used for all further screening activities. Each compound was dissolved in DMSO as a 10 mM stock and used to prepare compound source plates. Serial dilution (1:3, 10-point dose-response curves starting from 10 μM) and compound transfer was performed using the ECHO 550 (Labcyte, Sunnyvale, Calif.) into 384-well white solid bottom assay plates (Greiner Bio-One) with appropriate DMSO backfill for a final DMSO concentration of 0.1%. For Sp5-Luc reporter gene assays, the cells were plated at 4,000 cells/well in 384-well plates with medium containing 1% fetal bovine serum and incubated overnight at 37° C. and 5% CO2. Following incubation, 20 μl of BrightGlo luminescence reagent (Promega) was added to each well of the 384-well assay plates. The plates were placed on an orbital shaker for 2 min and then luminescence was quantified using the Envision (Perkin Elmer) plate reader. Readings were normalized to DMSO only treated cells, and normalized activities were utilized for EC50 calculations using the dose-response log (inhibitor) vs. response-variable slope (four parameters) nonlinear regression feature available in GraphPad Prism 5.0 (or Dotmatics). For EC50 of >10 μM, the percent inhibition at 10 μM is provided.

[2] = tested on: IL-6 (THP-1 cells); assay: IL-6 inhibition in LPS-stimulated THP-1 monocytes (HTRF); assay type: cell-based; details: Homo sapiens, IL-6 HTRF; for EC50: 500 ng/mL LPS, Table 6; for inhibition at 10 µM: LPS, Table 6, read-out: percent inhibition at 10 μM (given in parentheses for EC50 >10 μM)
Description: Human Monocyte Cell Culture: Human monocyte cell line (THP-1 cells; Catalog # TIB-202, ATCC, Manassas, Va.) were cultured in Roswell Park Memorial Institute (RPMI) 1640 Medium (Catalog #21870-100, Buffalo, N.Y.) with 1% L-glutamine, 1% HEPES, 1% Sodium Pyruvate, 2% Sodium Bicarbonate supplemented with 100 units/mL penicillin, 50 μg/mL streptomycin, 2-mercaptoethanol (0.05 mM) [basal medium] and 10% fetal bovine serum (Catalog #16140089, Life Technologies, Carlsbad, Calif.) at 37° C. and 5% CO2.
Compound Screening: THP-1 cells were cultured in basal media with 1% FBS for 24 hours before the start of the assay. Each compound was dissolved in DMSO as a 10 mM stock and used to prepare compound source plates. Serial dilution (1:3, 10-point dose-response curves starting from 10 μM) and compound transfer was performed using the ECHO 550 (Labcyte, Sunnyvale, Calif.) into 384-well white low volume assay plates (Greiner Bio-One) with appropriate DMSO backfill for a final DMSO concentration of 0.1%. THP-1 cells were plated at 5000 cells/well in the 384-well plates and incubated at 37° C. for 2 h. 500 ng/mL of LPS was added after 2 hours and cells were incubated for another 22 hours at 37° C. Plates were spun in a centrifuge for 1 minute at […] and a mixture of anti-IL6 XL665, and anti-IL6 Cryptate diluted in reconstitution buffer (Cisbio Inc.) was added to each well. Following incubation for 3 hrs at room temperature, Homogeneous Time-Resolved Fluorescence (HTRF) was measured using the Envision (Perkin Elmer) at 665 nm and […]. The ratio of fluorescence at 665 nm to 620 nm was used as a readout for IL6 quantification. All samples were processed in duplicate. Readings were normalized to DMSO treated cells and normalized activities were utilized for EC50 calculations using the dose-response log (inhibitor) vs. response-variable slope (four parameters) nonlinear regression feature available in GraphPad Prism 5.0 (or Dotmatics). For EC50 of >10 μM, the percent inhibition at 10 μM is provided.

EC50 [1] | EC50 [2] | SMILES | inhibition at 10 µM [2] | inhibition at 10 µM [1]
1.14 µM | 3.6 µM | Fc1ccccc1-c1cccc2[nH]c(-c3n[nH]c4ccc(-c5cncc(CNCC6CCCC6)c5)nc34)nc12 [Compound 81, 1-Cyclopentyl-N-((5-(3-(4-(2-fluorophenyl)-1H-benzo[d]imidazol-2-yl)-1H-pyrazolo[4,3-b]pyridin-5-yl)pyridin-3-yl)methyl)methanamine] | – | –
3.39 µM | > 10 µM | Cn1cc(-c2ccc3[nH]nc(-c4nc5c(N6CCCCC6)cccc5[nH]4)c3n2)c(CO)n1 [Compound 1134, (1-Methyl-4-(3-(4-(piperidin-1-yl)-1H-benzo[d]imidazol-2-yl)-1H-pyrazolo [4,3-b]pyridin-5-yl)-1H-pyrazol-3-yl)methanol] | 28.3% | –
3.97 µM | 4.49 µM | COc1cccc(-c2cccc3[nH]c(-c4n[nH]c5ccc(-c6cncc(OC7CCNCC7)c6)nc45)nc23)c1 [Compound 1025, 3-(4-(3-Methoxyphenyl)-1H-benzo[d]imidazol-2-yl)-5-(5-(piperidin-4-yloxy)pyridin-3-yl)-1H-pyrazolo[4,3-b]pyridine] | – | –
> 10 µM | 0.0695 µM | CN1CCN(c2cccc3[nH]c(-c4n[nH]c5ccc(-c6cnccn6)nc45)nc23)CC1 [Compound 648, 3-(4-(4-Methylpiperazin-1-yl)-1H-benzo[d]imidazol-2-yl)-5-(pyrazin-2-yl)-1H-pyrazolo[4,3-b]pyridine] | – | 37.9%
> 10 µM | > 10 µM | O=C(Nc1cncc(-c2ccc3[nH]nc(-c4nc5c(-c6ccccn6)cccc5[nH]4)c3n2)c1)c1ccccc1 [Compound 151, N-(5-(3-(4-(Pyridin-2-yl)-1H-benzo[d]imidazol-2-yl)-1H-pyrazolo[4,3-b]pyridin-5-yl)pyridin-3-yl)benzamide] | 22% | 34.2%
> 10 µM | 0.0983 µM | Cc1ccc(-c2cccc3[nH]c(-c4n[nH]c5ccc(-c6cncc(NC(=O)C7CCCC7)c6)nc45)nc23)s1 [Compound 414, N-(5-(3-(4-(5-Methylthiophen-2-yl)-1H-benzo[d]imidazol-2-yl)-1H-pyrazolo [4,3-b]pyridin-5-yl)pyridin-3-yl)cyclopentanecarboxamide] | – | 7.2%
> 10 µM | > 10 µM | CCNCc1cncc(-c2ccc3[nH]nc(-c4nc5c(-c6ccccn6)cccc5[nH]4)c3n2)c1 [Compound 146, N-((5-(3-(4-(Pyridin-2-yl)-1H-benzo[d]imidazol-2-yl)-1H-pyrazolo[4,3-b]pyridin-5-yl)pyridin-3-yl)methyl)ethanamine] | 19.5% | 41.6%
3.25 µM | 0.812 µM | COc1cccc(-c2cccc3[nH]c(-c4n[nH]c5ccc(-c6cncc(NC(=O)Cc7ccccc7)c6)nc45)nc23)c1 [Compound 1000, N-(5-(3-(4-(3-Methoxyphenyl)-1H-benzo[d]imidazol-2-yl)-1H-pyrazolo[4,3-b]pyridin-5-yl)pyridin-3-yl)-2-phenylacetamide] | – | –
> 10 µM | > 10 µM | Oc1cncc(-c2ccc3[nH]nc(-c4nc5ccccc5[nH]4)c3n2)c1 [Compound 661, 5-(3-(1H-Benzo[d]imidazol-2-yl)-1H-pyrazolo[4,3-b]pyridin-5-yl)pyridin-3-ol] | 50.9% | 32.4%
> 10 µM | 2.23 µM | CN1CCN(c2cccc3[nH]c(-c4n[nH]c5ccc(-c6cncnc6)nc45)nc23)CC1 [Compound 251, 3-(4-(4-Methylpiperazin-1-yl)-1H-benzo[d]imidazol-2-yl)-5-(pyrimidin-5-yl)-1H-pyrazolo[4,3-b]pyridine] | – | 4.7%
4.19 µM | 5.89 µM | CN(C)CCOc1cncc(-c2ccc3[nH]nc(-c4nc5c(-c6cccs6)cccc5[nH]4)c3n2)c1 [Compound 707, N,N-Dimethyl-2-((5-(3-(4-(thiophen-2-yl)-1H-benzo[d]imidazol-2-yl)-1H-pyrazolo[4,3-b]pyridin-5-yl)pyridin-3-yl)oxy)ethan-1-amine] | – | –
2.1 µM | 5.18 µM | Fc1cccc(-c2cccc3[nH]c(-c4n[nH]c5ccc(-c6cncc(CN7CCC(F)(F)C7)c6)nc45)nc23)c1 [Compound 26, 5-(5-((3,3-Difluoropyrrolidin-1-yl)methyl)pyridin-3-yl)-3-(4-(3-fluorophenyl)-1H-benzo[d]imidazol-2-yl)-1H-pyrazolo[4,3-b]pyridine] | – | –
3.01 µM | > 10 µM | CC(C)(C)C(=O)Nc1cncc(-c2ccc3[nH]nc(-c4nc5c(-c6ccc(F)cc6)cccc5[nH]4)c3n2)c1 [Compound 36, N-(5-(3-(4-(4-Fluorophenyl)-1H-benzo[d]imidazol-2-yl)-1H-pyrazolo[4,3-b]pyridin-5-yl)pyridin-3-yl)pivalamide] | 25.7% | –
4.61 µM | > 10 µM | COc1cccc(-c2cccc3[nH]c(-c4n[nH]c5ccc(-c6cccnc6)nc45)nc23)c1 [Compound 994, 3-(4-(3-Methoxyphenyl)-1H-benzo[d]imidazol-2-yl)-5-(pyridin-3-yl)-1H-pyrazolo[4,3-b]pyridine] | 32.2% | –
> 10 µM | > 10 µM | O=C(CC1CCNCC1)Nc1cncc(-c2ccc3[nH]nc(-c4nc5c(-c6ccsc6)cccc5[nH]4)c3n2)c1 [Compound 673, 2-(Piperidin-4-yl)-N-(5-(3-(4-(thiophen-3-yl)-1H-benzo[d]imidazol-2-yl)-1H-pyrazolo[4,3-b]pyridin-5-yl)pyridin-3-yl)acetamide] | 24.8% | 14.9%
> 10 µM | > 10 µM | Fc1cccc(-c2cccc3[nH]c(-c4n[nH]c5ccc(-c6cn[nH]c6)nc45)nc23)c1 [Compound 507, 3-(4-(3-Fluorophenyl)-1H-benzo[d]imidazol-2-yl)-5-(1H-pyrazol-4-yl)-1H-pyrazolo[4,3-b]pyridine] | 31.7% | 36%
1.34 µM | 0.487 µM | Nc1cncc(-c2ccc3[nH]nc(-c4nc5c(-c6ccccc6F)cccc5[nH]4)c3n2)c1 [Compound 59, 5-(3-(4-(2-Fluorophenyl)-1H-benzo[d]imidazol-2-yl)-1H-pyrazolo[4,3-b]pyridin-5-yl)pyridin-3-amine] | – | –
> 10 µM | > 10 µM | O=C(Nc1cncc(-c2ccc3[nH]nc(-c4nc5c(-c6ccccc6F)cccc5[nH]4)c3n2)c1)C1CCCC1 [Compound 78, N-(5-(3-(4-(2-Fluorophenyl)-1H-benzo[d]imidazol-2-yl)-1H-pyrazolo[4,3-b]pyridin-5-yl)pyridin-3-yl)cyclopentanecarboxamide] | 19.1% | 29%
4.21 µM | 0.0939 µM | c1cc(-c2ccoc2)c2nc(-c3n[nH]c4ccc(-c5cncc(OCCN6CCCC6)c5)nc34)[nH]c2c1 [Compound 690, 3-(4-(Furan-3-yl)-1H-benzo[d]imidazol-2-yl)-5-(5-(2-(pyrrolidin-1-yl)ethoxy)pyridin-3-yl)-1H-pyrazolo[4,3-b]pyridine] | – | –
